In US20250051344A1, “BIFUNCTIONAL SELECTIVE DEGRADERS OF SMARCA2 AND THERAPEUTIC USES THEREOF” (Nurix Therapeutics, Inc., priority 2023, published 2025):

Columns and labels:
SMARCA2 = target: T1, SMARCA2 (Homo sapiens, UniProt P51531); test: SMARCA2 Cellular Degradation Assay (Western blot analysis on Jess platform); assay type: cell-based; conditions: for DC50 / Dmax: cellular degradation; for Fold Selectivity SMARCA4/2: ratio DC50 SMARCA4 / DC50 SMARCA2
T1 construct: endogenous in cells
Method in brief: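 Lysates of cells extracted from tumors were prepared in supplemented RIPA buffer, and 5 μg total protein per capillary was analysed by capillary Western (Jess) with anti-SMARCA2 and anti-β-actin antibodies. SMARCA2 electropherogram area was background-subtracted, normalized to actin, and expressed as percent remaining versus vehicle control.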

SMARCA4 = target: T2, SMARCA4 (Homo sapiens, UniProt P51532); test: Cellular degradation assay, SMARCA4 (Table 1); assay type: cell-based
T2 construct: endogenous in cells
T2 sequence (P51532 whole entry, species assumed): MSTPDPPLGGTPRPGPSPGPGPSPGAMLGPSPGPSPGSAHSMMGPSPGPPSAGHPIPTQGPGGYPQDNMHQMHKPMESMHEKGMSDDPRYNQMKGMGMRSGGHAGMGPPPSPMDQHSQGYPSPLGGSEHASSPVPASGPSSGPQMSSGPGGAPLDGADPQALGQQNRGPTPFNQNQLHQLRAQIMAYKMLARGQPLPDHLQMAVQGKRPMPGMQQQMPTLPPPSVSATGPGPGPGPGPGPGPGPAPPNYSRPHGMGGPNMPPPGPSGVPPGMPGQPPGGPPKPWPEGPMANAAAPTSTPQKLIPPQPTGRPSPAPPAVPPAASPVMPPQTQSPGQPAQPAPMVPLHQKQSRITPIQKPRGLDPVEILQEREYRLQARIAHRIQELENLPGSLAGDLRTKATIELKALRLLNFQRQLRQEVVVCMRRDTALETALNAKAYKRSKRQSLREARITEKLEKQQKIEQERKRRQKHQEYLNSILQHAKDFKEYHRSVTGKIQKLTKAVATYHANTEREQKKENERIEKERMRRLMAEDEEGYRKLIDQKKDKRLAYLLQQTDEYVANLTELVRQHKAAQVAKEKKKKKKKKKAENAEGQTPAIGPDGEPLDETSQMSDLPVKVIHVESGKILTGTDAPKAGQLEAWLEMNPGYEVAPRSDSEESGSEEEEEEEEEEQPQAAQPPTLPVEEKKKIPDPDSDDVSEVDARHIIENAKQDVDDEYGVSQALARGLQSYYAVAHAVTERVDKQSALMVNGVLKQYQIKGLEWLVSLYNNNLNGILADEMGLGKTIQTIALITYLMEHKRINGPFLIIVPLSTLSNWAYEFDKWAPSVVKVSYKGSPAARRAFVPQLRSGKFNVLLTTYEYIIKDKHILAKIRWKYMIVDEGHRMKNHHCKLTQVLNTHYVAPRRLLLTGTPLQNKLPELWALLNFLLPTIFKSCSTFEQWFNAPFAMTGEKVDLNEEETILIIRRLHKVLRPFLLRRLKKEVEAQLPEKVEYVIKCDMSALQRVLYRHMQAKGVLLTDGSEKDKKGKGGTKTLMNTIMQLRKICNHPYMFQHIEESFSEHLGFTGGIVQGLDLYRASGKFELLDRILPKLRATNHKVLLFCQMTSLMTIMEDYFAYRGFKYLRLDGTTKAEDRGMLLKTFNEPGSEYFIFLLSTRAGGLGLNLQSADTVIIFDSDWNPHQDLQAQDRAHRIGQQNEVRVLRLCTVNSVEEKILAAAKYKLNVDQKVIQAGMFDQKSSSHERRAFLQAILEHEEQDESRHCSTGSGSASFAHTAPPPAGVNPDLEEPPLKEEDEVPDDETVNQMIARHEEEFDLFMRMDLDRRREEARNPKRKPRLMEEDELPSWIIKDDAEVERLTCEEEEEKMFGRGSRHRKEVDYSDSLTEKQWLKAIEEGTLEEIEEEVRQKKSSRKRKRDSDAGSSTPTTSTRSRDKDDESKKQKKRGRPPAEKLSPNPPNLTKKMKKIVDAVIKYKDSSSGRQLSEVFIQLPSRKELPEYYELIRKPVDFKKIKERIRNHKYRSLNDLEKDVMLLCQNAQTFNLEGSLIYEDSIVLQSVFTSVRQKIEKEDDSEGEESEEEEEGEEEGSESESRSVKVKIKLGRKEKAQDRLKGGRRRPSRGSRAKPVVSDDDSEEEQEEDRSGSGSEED

T1 sequence (P51531 whole entry, species assumed): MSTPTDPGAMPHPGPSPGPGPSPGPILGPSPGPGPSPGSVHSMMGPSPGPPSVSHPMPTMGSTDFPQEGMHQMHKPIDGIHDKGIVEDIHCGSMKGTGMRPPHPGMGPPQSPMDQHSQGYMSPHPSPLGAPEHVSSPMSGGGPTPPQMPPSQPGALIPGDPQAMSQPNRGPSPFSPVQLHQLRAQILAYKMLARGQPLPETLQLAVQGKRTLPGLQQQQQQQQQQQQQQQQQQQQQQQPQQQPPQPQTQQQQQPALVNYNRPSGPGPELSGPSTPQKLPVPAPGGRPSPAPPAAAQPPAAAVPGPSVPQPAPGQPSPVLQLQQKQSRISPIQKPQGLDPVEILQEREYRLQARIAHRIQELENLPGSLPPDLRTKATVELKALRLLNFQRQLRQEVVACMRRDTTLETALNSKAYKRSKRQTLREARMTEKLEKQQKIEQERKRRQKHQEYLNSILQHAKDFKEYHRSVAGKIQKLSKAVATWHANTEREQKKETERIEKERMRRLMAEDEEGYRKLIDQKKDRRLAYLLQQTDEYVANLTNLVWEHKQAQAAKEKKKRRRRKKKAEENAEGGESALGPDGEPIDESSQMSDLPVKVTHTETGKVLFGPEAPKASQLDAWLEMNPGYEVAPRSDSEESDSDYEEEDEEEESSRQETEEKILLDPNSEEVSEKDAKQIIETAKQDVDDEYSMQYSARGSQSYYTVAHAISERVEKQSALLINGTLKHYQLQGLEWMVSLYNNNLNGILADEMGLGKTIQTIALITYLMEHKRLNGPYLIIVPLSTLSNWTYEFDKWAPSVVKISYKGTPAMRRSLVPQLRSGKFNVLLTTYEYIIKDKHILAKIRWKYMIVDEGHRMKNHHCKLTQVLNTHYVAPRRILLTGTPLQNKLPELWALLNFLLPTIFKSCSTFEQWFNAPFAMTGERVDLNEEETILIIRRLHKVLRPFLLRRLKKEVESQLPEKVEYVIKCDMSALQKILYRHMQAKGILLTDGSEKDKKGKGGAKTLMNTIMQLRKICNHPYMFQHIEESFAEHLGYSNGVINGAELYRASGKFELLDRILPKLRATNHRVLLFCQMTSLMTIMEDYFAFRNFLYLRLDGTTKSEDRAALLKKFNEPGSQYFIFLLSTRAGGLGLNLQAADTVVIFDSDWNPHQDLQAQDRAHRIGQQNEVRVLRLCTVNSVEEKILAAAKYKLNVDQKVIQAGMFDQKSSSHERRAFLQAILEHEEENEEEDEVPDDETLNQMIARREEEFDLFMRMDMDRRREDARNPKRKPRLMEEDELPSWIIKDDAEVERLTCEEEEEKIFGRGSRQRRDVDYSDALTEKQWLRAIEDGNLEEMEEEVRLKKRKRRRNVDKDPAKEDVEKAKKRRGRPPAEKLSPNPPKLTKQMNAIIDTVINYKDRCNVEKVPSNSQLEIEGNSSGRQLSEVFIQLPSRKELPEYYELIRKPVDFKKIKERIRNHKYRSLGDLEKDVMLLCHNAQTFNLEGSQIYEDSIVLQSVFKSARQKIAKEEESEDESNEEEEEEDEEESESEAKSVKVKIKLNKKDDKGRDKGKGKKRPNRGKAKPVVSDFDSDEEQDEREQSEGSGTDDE

`CC(C)c1cc(C2(C(=O)N(C)C3CCN(CC4CCN(c5ccc(C6CCC(=O)NC6=O)cc5)CC4)CC3)CCN(c3cnnc(-c4ccccc4O)c3)CC2)no1` (racemic) [Example 98, rac-N-{1-[(1-{4-[(3R)-2,6-dioxopiperidin-3-yl]phenyl}piperidin-4-yl)methyl]piperidin-4-yl}-1-[6-(2-hydroxyphenyl)pyridazin-4-yl]-N-methyl-4-[5-(propan-2-yl)-1,2-oxazol-3-yl]piperidine-4-carboxamide] was tested, and the DC50 (SMARCA2) was 5.55 nM, the Dmax (SMARCA2) was 86.7% and the “Fold Selectivity SMARCA4/2” value (SMARCA2) was 10. It also gave a DC50 (SMARCA4) of 57.9 nM and a Dmax (SMARCA4) of 58.1%.
For `CC1(NC(=O)C2(c3ccccc3)CCN(c3cnnc(-c4ccccc4O)c3)CC2)CCN(CC2CCN(c3ccc(N[C@@H]4CCC(=O)NC4=O)cn3)CC2)CC1` (racemic) [Example 99, rac-(r)-n-(1-((1-(5-((2,6-dioxopiperidin-3-yl)amino)pyridin-2-yl)piperidin-4-yl)methyl)-4-methylpiperidin-4-yl)-1-(6-(2-hydroxyphenyl)pyridazin-4-yl)-4-phenylpiperidine-4-carboxamide], the DC50 (SMARCA2) was 48.1 nM, the Dmax (SMARCA2) was 57.3% and the “Fold Selectivity SMARCA4/2” value (SMARCA2) was 208. It also gave a Dmax (SMARCA4) of 46.9%.
With `O=C1CC[C@@H](c2cccc(N3CCC(CN4CCC5(CC4)CN(C(=O)C4(c6ccccc6)CCN(c6cnnc(-c7ccccc7O)c6)CC4)C5)CC3)c2)C(=O)N1` (racemic) [Example 101, rac-®-3-(3-(4-((2-(1-(6-(2-hydroxyphenyl)pyridazin-4-yl)-4-phenylpiperidine-4-carbonyl)-2,7-diazaspiro[3.5]nonan-7-yl)methyl)piperidin-1-yl)phenyl)piperidine-2,6-dione] the DC50 (SMARCA2) was 19.5 nM, the Dmax (SMARCA2) was 71% and the “Fold Selectivity SMARCA4/2” value (SMARCA2) was 6. It also gave a DC50 (SMARCA4) of 114 nM and a Dmax (SMARCA4) of 60.2%.
`CN(C(=O)C1(c2ccccc2)CCN(c2cnnc(-c3ccccc3O)c2)CC1)C1CCN(CC2CCN(c3cccc([C@@H]4CCC(=O)NC4=O)c3)CC2)CC1` (racemic) [Example 102, rac-(r)-n-(1-((1-(3-(2,6-dioxopiperidin-3-yl)phenyl)piperidin-4-yl)methyl)piperidin-4-yl)-1-(6-(2-hydroxyphenyl)pyridazin-4-yl)-n-methyl-4-phenylpiperidine-4-carboxamide] was tested, and the DC50 (SMARCA2) was 26.3 nM, the Dmax (SMARCA2) was 77.7% and the “Fold Selectivity SMARCA4/2” value (SMARCA2) was 11. The DC50 (SMARCA4) was 295 nM and the Dmax (SMARCA4) was 54.4%.
`O=C1CC[C@H](c2ccc(N3CCC(CCN4CCC(Oc5ccccc5)(C(=O)NCC5(c6ccccc6)CCN(c6cnnc(-c7ccccc7O)c6)CC5)CC4)CC3)cc2)C(=O)N1` (racemic) [Example 103, rac-(r)-1-(2-(1-(4-(2,6-dioxopiperidin-3-yl)phenyl)piperidin-4-yl)ethyl)-n-((1-(6-(2-hydroxyphenyl)pyridazin-4-yl)-4-phenylpiperidin-4-yl)methyl)-4-phenoxypiperidine-4-carboxamide] was tested, and the DC50 (SMARCA2) was 15.7 nM, the Dmax (SMARCA2) was 87.4% and the “Fold Selectivity SMARCA4/2” value (SMARCA2) was 8. For the same compound, the DC50 (SMARCA4) was 129 nM and the Dmax (SMARCA4) was 68.4%.
With `O=C1CC[C@H](c2ccc(N3CCC(CCN4CCC(C(=O)NCC5(c6ccccc6)CCN(c6cnnc(-c7ccccc7O)c6)CC5)CC45CCOCC5)CC3)cc2)C(=O)N1` (mixture of isomers) [Example 104, rac-1-(2-(1-(4-((r)-2,6-dioxopiperidin-3-yl)phenyl)piperidin-4-yl)ethyl)-n-((1-(6-(2-hydroxyphenyl)pyridazin-4-yl)-4-phenylpiperidin-4-yl)methyl)-9-oxa-1-azaspiro[5.5]undecane-4-carboxamide] the DC50 (SMARCA2) was 7.3 nM, the Dmax (SMARCA2) was 81.8% and the “Fold Selectivity SMARCA4/2” value (SMARCA2) was 1370. It also gave a Dmax (SMARCA4) of 50%.
With `O=C1CC[C@H](c2ccc(N3CCC(CCN4CCC(OCC(F)(F)F)(C(=O)NCC5(c6ccccc6)CCN(c6cnnc(-c7ccccc7O)c6)CC5)CC4)CC3)cc2)C(=O)N1` (racemic) [Example 105, rac-(r)-1-(2-(1-(4-(2,6-dioxopiperidin-3-yl)phenyl)piperidin-4-yl)ethyl)-n-((1-(6-(2-hydroxyphenyl)pyridazin-4-yl)-4-phenylpiperidin-4-yl)methyl)-4-(2,2,2-trifluoroethoxy)piperidine-4-carboxamide] the DC50 (SMARCA2) was 4.98 nM, the Dmax (SMARCA2) was 92.2% and the “Fold Selectivity SMARCA4/2” value (SMARCA2) was 12. For the same compound, the DC50 (SMARCA4) was 57.5 nM and the Dmax (SMARCA4) was 73.1%.
With `COc1ccccc1C1(C(=O)N2CC3(C2)CN(C2COC4(CCN(c5ccc([C@H]6CCC(=O)NC6=O)cc5)CC4)C2)C3)CCN(c2cnnc(-c3ccccc3O)c2)CC1` (mixture of isomers) [Example 106, (3R)-3-{4-[(3RS)-3-(6-{1-[6-(2-hydroxyphenyl)pyridazin-4-yl]-4-(2-methoxyphenyl)piperidine-4-carbonyl}-2,6-diazaspiro[3.3]heptan-2-yl)-1-oxa-8-azaspiro[4.5]decan-8-yl]phenyl}piperidine-2,6-dione] the DC50 (SMARCA2) was 4.91 nM, the Dmax (SMARCA2) was 78.3% and the “Fold Selectivity SMARCA4/2” value (SMARCA2) was 7. The DC50 (SMARCA4) was 32.2 nM and the Dmax (SMARCA4) was 59.4%.
For `O=C1CC[C@H](c2ccc(N3CCC(CCN4CCC[C@@H]4C(=O)NCC4(c5ccccc5)CCN(c5cnnc(-c6ccccc6O)c5)CC4)CC3)cc2)C(=O)N1` (racemic) [Example 107, (r)-1-(2-(1-(4-((rs)-2,6-dioxopiperidin-3-yl)phenyl)piperidin-4-yl)ethyl)-n-((1-(6-(2-hydroxyphenyl)pyridazin-4-yl)-4-phenylpiperidin-4-yl)methyl)pyrrolidine-2-carboxamide], the DC50 (SMARCA2) was 41.3 nM, the Dmax (SMARCA2) was 58.8% and the “Fold Selectivity SMARCA4/2” value (SMARCA2) was 242. The Dmax (SMARCA4) was 29.4%.
In the case of `O=C1CCC(Nc2ccc(C3CCN(CC(=O)N4CCC5(CC4)CN(C(=O)C4(c6ccccc6)CCN(c6cnnc(-c7ccccc7O)c6)CC4)C5)CC3)cc2)C(=O)N1` (racemic) [Example 108, rac-(r)-3-((4-(1-(2-(2-(1-(6-(2-hydroxyphenyl)pyridazin-4-yl)-4-phenylpiperidine-4-carbonyl)-2,7-diazaspiro[3.5]nonan-7-yl)-2-oxoethyl)piperidin-4-yl)phenyl)amino)piperidine-2,6-dione], the DC50 (SMARCA2) is reported as 23.4 nM, the Dmax (SMARCA2) is reported as 66.5% and the “Fold Selectivity SMARCA4/2” value (SMARCA2) is reported as 8. The DC50 (SMARCA4) was 179 nM and the Dmax (SMARCA4) was 52.5%.
For `O=C1CC[C@H](c2ccc(C3CCN(CC(=O)N4CCC(S(=O)(=O)NCC5(c6ccccc6)CCN(c6cnnc(-c7ccccc7O)c6)CC5)CC4)CC3)cc2)C(=O)N1` (racemic) [Example 109, rac-1-(2-(4-(4-(2,6-dioxopiperidin-3-yl)phenyl)piperidin-1-yl)acetyl)-n-((1-(6-(2-hydroxyphenyl)pyridazin-4-yl)-4-phenylpiperidin-4-yl)methyl)piperidine-4-sulfonamide], the DC50 (SMARCA2) was 76.9 nM, the Dmax (SMARCA2) was 82.7% and the “Fold Selectivity SMARCA4/2” value (SMARCA2) was 6. For the same compound, the DC50 (SMARCA4) was 498 nM and the Dmax (SMARCA4) was 67.1%.
For `CN(C(=O)C1(Oc2ccn(C)n2)CCN(c2cnnc(-c3ccccc3O)c2)CC1)C1CCN(C(=O)CN2CCC(c3ccc([C@@H]4CCC(=O)NC4=O)cc3)CC2)CC1` (racemic) [Example 110, rac-n-(1-(2-(4-(4-(2,6-dioxopiperidin-3-yl)phenyl)piperidin-1-yl)acetyl)piperidin-4-yl)-1-(6-(2-hydroxyphenyl)pyridazin-4-yl)-n-methyl-4-((1-methyl-1h-pyrazol-3-yl)oxy)piperidine-4-carboxamide], the DC50 (SMARCA2) was 16.7 nM, the Dmax (SMARCA2) was 80.8% and the “Fold Selectivity SMARCA4/2” value (SMARCA2) was 16. The DC50 (SMARCA4) was 273 nM and the Dmax (SMARCA4) was 56.9%.
